Where two headings read alike, the source gives them in different places.
Test: Placebo controlled, dose escalation pharmacokinetic study of oral (Z)-Endoxifen capsules (serum endoxifen; incl. accumulation ratios and dose linearity)
Format: in vivo, human
Design: Serum concentration, Maximum / Serum concentration, GeoMean / Serum concentration, Mean / Serum concentration, Median / terminal rate constant: unit not given here
Settings: for Serum concentration, GeoMean / Serum concentration, Maximum / Serum concentration, Mean / Serum concentration, Median / Serum concentration, Minimum: 2 mg (n = 6)
Description: An objective of the study was to assess the safety and tolerability of oral (Z)-Endoxifen when administered […] orally as a capsule to healthy female volunteers. A secondary objective was to assess the pharmacokinetics of multiple doses of oral (Z)-Endoxifen in the subjects.
Generally, healthy female volunteers aged ≥18 years and ≤65 years were enrolled. 24 participants were enrolled in 3 cohorts and will be administered study drug orally. Three dose levels of orally administered (Z)-Endoxifen were investigated in 3 cohorts. In each cohort participants were randomized to receive an oral (Z)-Endoxifen or placebo in a blinded fashion. Enteric-resistant capsules used in the study were designed as delayed release capsules to resist rupture for at least 30 minutes, but typically, for about 2 hours, under gastric conditions and then open fully in intestinal fluid (DRCaps; Capsugel, a Lonza Company, USA). Enteric-resistant (Swedish Orange size Zero (0); Capsugel, USA) DRCaps capsules manually filled with 1, 2 or 4 mg of (Z)-endoxifen neat in compliance with GMP requirements were used. Placebo capsules contained microcrystalline cellulose an inert common capsule and tablet excipient.
Each cohort enrolled 8 participants, with 6 participants receiving (Z)-Endoxifen 1 mg capsules orally at 1 mg (Cohort 1), 2 mg (Cohort 2) or 4 mg (Cohort 3) doses and 2 participants receiving matching placebo capsules. In Cohort 1 (Dose Level=1 mg) two participants (sentinels) were dosed 24 hours prior to the remaining participants. One sentinel was dosed with (Z)-Endoxifen and the other with placebo. The remaining six participants in Cohort 1 were dosed as no safety concerns were identified in the sentinel participants. The non-sentinel participants in Cohort 1 were admitted to the clinical research facility at least one day later than the sentinels. There were no sentinels in Cohorts 2 and 3.
Participant engagement in this study was for a period of 56 days. These included a 28 day screening period, and a 7 day post treatment period for Pharmacokinetic (PK) sampling. There were two confinement periods, one at the beginning and one at the end of the dosing periods. Participants were confined to the clinical facility on Days-1 through to Day 2 and Days 21 and 22. If participants were to experience any clinically significant adverse events during the study, they would have been required to remain in the clinical facility for further observation at the discretion of the Principal Investigator (PI).
Healthy female volunteers were screened within 28 days prior to commencement of dosing. Participants were admitted to the clinical facility on Day-1 for up to 3 days. The first dose of (Z)-Endoxifen or placebo capsules was administered on Day 1. Following completion of all safety assessments and sampling for PK analyses, participants were discharged from the clinical facility on Day 2. The first dose on Day 1 was followed by a 6-day treatment free period (Days 2-7). Each participant returned to the clinical facility for PK blood draws and safety assessments during the treatment free period on study Days 4 and 6. On Day 8 participants commenced daily administration of (Z)-Endoxifen capsules or placebo capsules for 14 consecutive days (Days 8-21). Participants were supplied with study drug capsules and asked to self administer daily. Participants visited the clinical facility on Days 11, 14 and 17, prior to dose administration, for PK blood draws and safety assessments. On the morning of Day 21 each participant returned to the clinical facility prior to dose administration and were confined to the facility until Day 22 to allow for the collection of PK blood draws and safety assessments. The Day 21 dose was the last administration of study drug. Participants were discharged from the clinical facility on Day 22 and returned for PK blood draws and safety assessments on study Days 24, 26, and 28. […]

CC/C(=C(\c1ccc(O)cc1)c1ccc(OCCNC)cc1)c1ccccc1 [(Z)-Endoxifen, (Z)-4-(1-(4-(2-(methylamino)ethoxy)phenyl)-2-phenylbut-1-enyl) phenol]
concentration at 10 h (1 mg, Day 1 Pre-dose, read-out: Serum concentration, GeoMean): 2.68 nM | concentration at 10 h (1 mg, Day 1 Pre-dose, read-out: Serum concentration, Max): 2.68 nM | concentration at 10 h (1 mg, Day 1 Pre-dose, read-out: Serum concentration, Mean): 2.68 nM | concentration at 10 h (1 mg, Day 1 Pre-dose, read-out: Serum concentration, Median): 2.68 nM | concentration at 10 h (1 mg, Day 1 Pre-dose, read-out: Serum concentration, Min): 2.68 nM | concentration at 10 h (1 mg, Day 8 Pre-dose, read-out: Serum concentration, GeoMean): 2.68 nM | concentration at 10 h (1 mg, Day 8 Pre-dose, read-out: Serum concentration, Max): 2.68 nM | concentration at 10 h (1 mg, Day 8 Pre-dose, read-out: Serum concentration, Mean): 2.68 nM | concentration at 10 h (1 mg, Day 8 Pre-dose, read-out: Serum concentration, Median): 2.68 nM | concentration at 10 h (1 mg, Day 8 Pre-dose, read-out: Serum concentration, Min): 2.68 nM | concentration at 10 h (1 mg, Day 11 Pre-Dose, read-out: Serum concentration, GeoMean): 37.7 nM | concentration at 10 h (1 mg, Day 11 Pre-Dose, read-out: Serum concentration, Max): 45.5 nM | concentration at 10 h (1 mg, Day 11 Pre-Dose, read-out: Serum concentration, Mean): 38.5 nM | concentration at 10 h (1 mg, Day 11 Pre-Dose, read-out: Serum concentration, Median): 42.8 nM | concentration at 10 h (1 mg, Day 11 Pre-Dose, read-out: Serum concentration, Min): 26.8 nM | concentration at 10 h (1 mg, Day 14 Pre-dose, read-out: Serum concentration, GeoMean): 37.6 nM | concentration at 10 h (1 mg, Day 14 Pre-dose, read-out: Serum concentration, Max): 75.0 nM | concentration at 10 h (1 mg, Day 14 Pre-dose, read-out: Serum concentration, Mean): 43.4 nM | concentration at 10 h (1 mg, Day 14 Pre-dose, read-out: Serum concentration, Median): 40.2 nM | concentration at 10 h (1 mg, Day 14 Pre-dose, read-out: Serum concentration, Min): 13.4 nM | concentration at 10 h (1 mg, Day 17 Pre-Dose, read-out: Serum concentration, GeoMean): 38.5 nM | concentration at 10 h (1 mg, Day 17 Pre-Dose, read-out: Serum concentration, Max): 64.2 nM | concentration at 10 h (1 mg, Day 17 Pre-Dose, read-out: Serum concentration, Mean): 43.4 nM | concentration at 10 h (1 mg, Day 17 Pre-Dose, read-out: Serum concentration, Median): 45.5 nM | concentration at 10 h (1 mg, Day 17 Pre-Dose, read-out: Serum concentration, Min): 13.4 nM | Serum concentration, GeoMean (Day 1 Pre-dose): 1.00 | Serum concentration, Maximum (Day 1 Pre-dose): 1.00 | Serum concentration, Mean (Day 1 Pre-dose): 0.17 | Serum concentration, Median (Day 1 Pre-dose): 0.00 | Serum concentration, Minimum (Day 1 Pre-dose): 0.00 | Serum concentration, GeoMean (Day 4 Hr 72): 5.47 | Serum concentration, Maximum (Day 4 Hr 72): 8.00 | Serum concentration, Mean (Day 4 Hr 72): 5.67 | Serum concentration, Median (Day 4 Hr 72): 5.50 | Serum concentration, GeoMean (Day 6 Hr 120): 2.55 | Serum concentration, Maximum (Day 6 Hr 120): 4.00 | Serum concentration, Mean (Day 6 Hr 120): 2.80 | Serum concentration, Median (Day 6 Hr 120): 3.00 | Serum concentration, GeoMean (Day 8 Pre-dose): 1.00 | Serum concentration, Maximum (Day 8 Pre-dose): 1.00 | Serum concentration, Mean (Day 8 Pre-dose): 0.83 | Serum concentration, Median (Day 8 Pre-dose): 1.00 | Serum concentration, GeoMean (Day 11 Pre-Dose): 22.6 | Serum concentration, Maximum (Day 11 Pre-Dose): 28.0 | Serum concentration, Mean (Day 11 Pre-Dose): 22.8 | Serum concentration, Median (Day 11 Pre-Dose): 22.5 | Serum concentration, GeoMean (Day 14 Pre-dose): 28.9 | Serum concentration, Maximum (Day 14 Pre-dose): 37.0 | Serum concentration, Mean (Day 14 Pre-dose): 29.2 | Serum concentration, Median (Day 14 Pre-dose): 28.5 | Serum concentration, GeoMean (Day 17 Pre-Dose): 31.5 | Serum concentration, Maximum (Day 17 Pre-Dose): 47.0 | Serum concentration, Mean (Day 17 Pre-Dose): 32.2 | Serum concentration, Median (Day 17 Pre-Dose): 29.5 | Serum concentration, Maximum (Day 1 hr 0.5): 0.00 | Serum concentration, Mean (Day 1 hr 0.5): 0.00 | Serum concentration, Median (Day 1 hr 0.5): 0.00 | Serum concentration, GeoMean (Day 1 hr 1): 2.35 | Serum concentration, Maximum (Day 1 hr 1): 4.00 | Serum concentration, Mean (Day 1 hr 1): 2.17 | Serum concentration, Median (Day 1 hr 1): 2.50 | Serum concentration, GeoMean (Day 1 hr 2): 9.55 | Serum concentration, Maximum (Day 1 hr 2): 16.0 | Serum concentration, Mean (Day 1 hr 2): 10.2 | Serum concentration, Median (Day 1 hr 2): 10.0 | Serum concentration, GeoMean (Day 1 hr 3): 14.3 | Serum concentration, Maximum (Day 1 hr 3): 17.0 | Serum concentration, Mean (Day 1 hr 3): 14.5 | Serum concentration, Median (Day 1 hr 3): 14.5 | Serum concentration, GeoMean (Day 1 hr 4): 16.6 | Serum concentration, Maximum (Day 1 hr 4): 22.0 | Serum concentration, Mean (Day 1 hr 4): 17.2 | Serum concentration, Median (Day 1 hr 4): 17.5 | Serum concentration, GeoMean (Day 1 hr 5): 16.8 | Serum concentration, Maximum (Day 1 hr 5): 22.0 | Serum concentration, Mean (Day 1 hr 5): 17.2 | Serum concentration, Median (Day 1 hr 5): 17.0 | Serum concentration, GeoMean (Day 1 hr 8): 13.8 | Serum concentration, Maximum (Day 1 hr 8): 19.0 | Serum concentration, Mean (Day 1 hr 8): 14.3 | Serum concentration, Median (Day 1 hr 8): 14.5 | Serum concentration, GeoMean (Day 1 hr 10): 14.2 | Serum concentration, Maximum (Day 1 hr 10): 19.0 | Serum concentration, Mean (Day 1 hr 10): 14.5 | Serum concentration, Median (Day 1 hr 10): 14.5 | Serum concentration, GeoMean (Day 1 hr 12): 14.1 | Serum concentration, Maximum (Day 1 hr 12): 18.0 | Serum concentration, Mean (Day 1 hr 12): 14.2 | Serum concentration, Median (Day 1 hr 12): 14.0 | Serum concentration, Minimum (Day 1 hr 12): 12.0 | Serum concentration, GeoMean (Day 1 hr 24): 10.1 | Serum concentration, Maximum (Day 1 hr 24): 13.0 | Serum concentration, Mean (Day 1 hr 24): 10.3 | Serum concentration, Median (Day 1 hr 24): 10.5 | AUC0-inf, Max (Day 1, 1 mg, N = 5): 739 ng·h/mL | AUC0-inf, Min (Day 1, 1 mg, N = 5): 441 ng·h/mL | AUC24hr, Max (Day 1, 1 mg, N = 5): 183 ng·h/mL | AUC24hr, Min (Day 1, 1 mg, N = 5): 102 ng·h/mL | AUCTlast, Max (Day 1, 1 mg, N = 5): 582 ng·h/mL | AUCTlast, Min (Day 1, 1 mg, N = 5): 367 ng·h/mL | CL/F, GeoMean (Day 1, 1 mg, N = 5): 1.79 L/h | CL/F, Max (Day 1, 1 mg, N = 5): 2.27 L/h | CL/F, Mean (Day 1, 1 mg, N = 5): 1.82 L/h | CL/F, Median (Day 1, 1 mg, N = 5): 1.87 L/h

From patent US12275684B2, “Methods for making and using endoxifen” (Atossa Therapeutics, Inc., priority 2017, dated 2025)
